Laboratory results reported in article PMC10539329, “NLRP6 potentiates PI3K/AKT signalling by promoting autophagic degradation of p85α to drive tumorigenesis” (Nature Communications, 2023).

Columns and labels:
NLRP6/p85α interaction = assay: Competitive ELISA, NLRP6 binding to p85α; type: biochemical; details: 10 μM peptide (PepC +, Pep9 ++), 1 h
Description: DNA encoding full-length NLRP6 was codon optimized and chemically synthesized by Genewiz (Soochow, China). The DNA sequence was subcloned into NdeI-XhoI sites of a pDB-His-MBP vector (kindly given by Pro. Chenggui Han, China Agricultural University, Beijing, China). Recombinant NLRP6 protein was expressed and purified following previous reports, with slight modifications. Briefly, the protein was expressed in E. coli (DE3) at 16 °C with 0.5 mM IPTG induction overnight. Then, the protein was purified by Ni affinity and gel filtration chromatography. The p85α WT and p85α mutant sequences were chemically synthesized and subcloned into BamHI-XhoI sites of a pGEX-6P-1 plasmid by GenScript (Nanjing, China). The E. coli (DE3) transformed with the plasmids were grown in LB medium at 37 °C. The culture medium was supplemented with 0.5 mM IPTG followed by incubation at 16 °C for 16–18 h. The proteins were purified by glutathione-affinity chromatography (Smart-Life Sciences, Changzhou, China) followed by gel filtration chromatography (Cytiva, MA, USA) using PBS. The protein extinction coefficient was calculated by ProtParam, and the protein concentration was determined by the ultraviolet spectrophotometry method.
The 96-well plate was coated with bovine serum albumin (BSA) or purified NLRP6. HRP-conjugated PepC or HRP-conjugated Pep9 was incubated with BSA or NLRP6 for 1 h, and the unbound peptide was washed away. The HRP substrate was added, and the absorbance was detected at 450 nm. For the competitive ELISA, the 96-well plate was coated with purified p85α. The binding of NLRP6 to p85α competed with 10 μM PepC or 5 μM, 10 μM, 20 μM Pep9 for 1 h.

LN229 cells = assay: Cell proliferation / viability assay, LN229; type: cell-based, Human; details: TAT-peptide
Description: (§1) Cells were seeded into 12-well plates at a density of 1 × 10^4 cells per well. Manual cell counting was carried out at the indicated times using trypan blue and a haemocytometer.
(§2) To determine the antitumour effect of the peptide in vitro, the peptide was incubated with cells for 24 h when the cells were grown to approximately 80% confluence. Cell viability was measured at the indicated time points. The cell lysates were collected for immunoprecipitation as described above. To determine the antitumour effect of the peptide in vivo, the peptide was stereotactically injected using identical coordinates of tumour implantation in 3 μl of PBS. Briefly, 3 weeks after intracranial tumour cell implantation, mice with similar tumour sizes and similar weights were selected and randomly arranged into five groups (n = 6): PBS, PepC (0.25 mg/kg TAT-PepC per injection), Pep9 low dose (Pep9 L, 0.05 mg/kg TAT-Pep9 per injection), Pep9 medium dose (Pep9 M, 0.1 mg/kg TAT-Pep9 per injection), and Pep9 high dose (Pep9 H, 0.25 mg/kg TAT-Pep9 per injection). Each mouse received intratumoural injection every 10 days (at Day 21, Day 31, Day 41, and Day 51), and tumour growth was monitored at Day 21, Day 41, and Day 56. The experiment was terminated at Day 80, and all the mice (if they were alive) were sacrificed as previously described.

LN18 cells = assay: Cell proliferation / viability assay, LN18; type: cell-based, Human; details: Supplementary Figure 8c
Description: as §1, §2

[1] = test system: nude mice with intracranially implanted tumour cells; assay: Survival of nude mice with intracranial tumour after intratumoural peptide; type: in vivo, BALB/c nude mice; details: 0.25 mg/kg per injection (PepC, Pep9 H)
Description: BALB/c nude mice were maintained and bred in a specific-pathogen free (SPF) environment, adhering to standard conditions of temperature (20–26 °C) and humidity (40–70%). They were subjected to a strict 12-h light cycle, with lights on at 08:00 a.m. and off at 08:00 p.m. No limitations were imposed on the sex of the experimental animals involved in this study. Cells expressing firefly luciferase mixed with Matrigel (Corning, NY, USA) were intracranially injected into 5- to 6-week-old female athymic nude mice. The intracranial injection point was at the cerebral cortex, 1 mm prior to coronal suture, 1 mm on the right side of the centreline, and 3 mm below the dura mater. Appropriate medications were provided to reduce pain. To monitor intracranial tumour growth, the animals were intraperitoneally injected with D-luciferin (Yeasen, #40902ES01) and anaesthetized with isoflurane. The images were captured using an In Vivo MS FX pro Imaging System (Bruker, MA, USA) or IVIS Lumina imaging station (Perkin Elmer, MA, USA). The results were reported as the total flux (photons/second). The mice were sacrificed at the indicated time points. The brains were removed, fixed in 4% paraformaldehyde, and embedded in paraffin.
as §2

p85α = assay: IHC of p85α in tumour tissues from peptide-treated mice; type: in vivo, nude mice with human tumour cells; details: PepC
Description: In brief, the tissue sections were deparaffinized in xylene and 50–100% ethanol sequentially and then rehydrated in deionized water. The sections were immersed in Antigen Retrieval Solution in a pressure cooker and kept at 120 °C for 2.5 min. Endogenous peroxidase activity was blocked with peroxidase blocking reagent (3% hydrogen peroxide in water) for 15 min. The sections were incubated with primary antibodies in incubation buffer at 4 °C overnight. The sections were rinsed with wash buffer and incubated with secondary antibodies at room temperature for 1 h. Finally, the sections were immersed in DAB Chromogen Solution for suitable staining and counterstained with Haematoxylin QS for 3 min. The protein score was calculated by multiplying the percentage of positive cells (<10% = 0, 10–25% = 1, 25–50% = 2, 50–75% = 3, >75% = 4) by the intensity (negative = 0, weak staining = 1, moderate staining = 2, or strong staining = 3). The stained sections were evaluated by two independent pathologists who were blinded to the clinical characteristics.
as §2

SAEGYQYRALYD [Pep1, peptide found on the p85α SH3 domain; selected as the control named PepC]
ELISA value (NLRP6 binding to p85α) (NLRP6/p85α interaction; replicate 1, no peptide 2.20): 1.90
ELISA value (NLRP6 binding to p85α) (NLRP6/p85α interaction; replicate 2, no peptide 2.10): 2.05
ELISA value (NLRP6 binding to p85α) (NLRP6/p85α interaction; replicate 3, no peptide 2.45): 1.80
Relative cell viability (LN229 cells; concentration 5 (unit not given), replicate 1): 0.87
Relative cell viability (LN229 cells; concentration 5 (unit not given), replicate 2): 0.87
Relative cell viability (LN229 cells; concentration 5 (unit not given), replicate 3): 0.99
Relative cell viability (LN229 cells; concentration 10 (unit not given), replicate 1): 1.05
Relative cell viability (LN229 cells; concentration 10 (unit not given), replicate 2): 0.89
Relative cell viability (LN229 cells; concentration 10 (unit not given), replicate 3): 0.97
Relative cell viability (LN229 cells; concentration 20 (unit not given), replicate 1): 0.94
Relative cell viability (LN229 cells; concentration 20 (unit not given), replicate 2): 0.96
Relative cell viability (LN229 cells; concentration 20 (unit not given), replicate 3): 1.01
Relative cell viability (LN229 cells; concentration 30 (unit not given), replicate 1): 0.95
Relative cell viability (LN229 cells; concentration 30 (unit not given), replicate 2): 0.96
Relative cell viability (LN229 cells; concentration 30 (unit not given), replicate 3): 1.02
Relative cell viability (LN18 cells; 5 μM, replicate 1): 0.95
Relative cell viability (LN18 cells; 5 μM, replicate 2): 0.92
Relative cell viability (LN18 cells; 5 μM, replicate 3): 0.93
Relative cell viability (LN18 cells; 10 μM, replicate 1): 0.92
Relative cell viability (LN18 cells; 10 μM, replicate 2): 0.95
Relative cell viability (LN18 cells; 10 μM, replicate 3): 0.90
Relative cell viability (LN18 cells; 20 μM, replicate 1): 0.95
Relative cell viability (LN18 cells; 20 μM, replicate 2): 0.92
Relative cell viability (LN18 cells; 20 μM, replicate 3): 0.90
Relative cell viability (LN18 cells; 30 μM, replicate 1): 0.92
Relative cell viability (LN18 cells; 30 μM, replicate 2): 0.88
Relative cell viability (LN18 cells; 30 μM, replicate 3): 0.94
nude mice survival ([1]; terminated Day 80, mouse 1): 60 days
nude mice survival ([1]; terminated Day 80, mouse 2): 61 days
nude mice survival ([1]; terminated Day 80, mouse 3, >= is status 0 (live)): 59 days
nude mice survival ([1]; terminated Day 80, mouse 4, >= is status 0 (live)): 58 days
nude mice survival ([1]; terminated Day 80, mouse 5, >= is status 0 (live)): 58 days
nude mice survival ([1]; terminated Day 80, mouse 6, >= is status 0 (live)): 62 days
score (Supplementary Figure 8k) (p85α; replicate 1): 2
score (Supplementary Figure 8k) (p85α; replicate 2): 1
score (Supplementary Figure 8k) (p85α; replicate 3): 1
score (Supplementary Figure 8k) (p85α; replicate 4): 3
score (Supplementary Figure 8k) (p85α; replicate 5): 1
